Data from patent publication US20260125382A1, “COMPOUNDS FOR INHIBITING OR DEGRADING CDK2 AND/OR CDK9 AND MEDICINAL USE THEREOF” (KOREA RESEARCH INSTITUTE OF CHEMICAL TECHNOLOGY, priority 2022, published 2026).

Key:
[1] = biological target: T1, CDK9 (Homo sapiens, UniProt P50750); assay: CDK protein degradation activity (Western blotting), CDK9; assay type: cell-based; conditions: MDA-MB-231 cells, 16 hours, Western blot
T1 construct: endogenous in cells; host or cells: MDA-MB-231
Procedure, shortened: (§1)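 Breast cancer line MDA-MB-231, 16 h compound treatment (100 nM–10 μM final, three doses). Immunoblot quantification of CDK2/CDK9 versus tubulin, normalized to DMSO control.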

[2] = biological target: T2, CDK2 (Homo sapiens, UniProt P24941); assay: CDK protein degradation activity (Western blotting), CDK2; assay type: cell-based; conditions: MDA-MB-231 cells, 16 hours, Western blot
T2 construct: endogenous in cells; host or cells: MDA-MB-231
Procedure, shortened: as §1

T1 sequence (P50750 whole entry): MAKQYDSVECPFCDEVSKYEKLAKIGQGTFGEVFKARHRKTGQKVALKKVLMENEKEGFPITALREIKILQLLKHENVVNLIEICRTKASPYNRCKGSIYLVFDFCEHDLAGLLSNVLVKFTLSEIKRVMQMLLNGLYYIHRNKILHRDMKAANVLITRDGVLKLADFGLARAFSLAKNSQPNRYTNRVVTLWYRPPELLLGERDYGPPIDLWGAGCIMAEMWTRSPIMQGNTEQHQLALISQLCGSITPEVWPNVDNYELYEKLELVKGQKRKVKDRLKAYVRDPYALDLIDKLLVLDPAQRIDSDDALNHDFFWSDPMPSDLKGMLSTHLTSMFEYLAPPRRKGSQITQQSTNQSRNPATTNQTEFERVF

Structure (SMILES): O=C1CCC(n2nnc3ccc(N4CCC(CCN5CCN(c6ccc(Nc7ncnc8c7ncn8[C@H]7C[C@@H](NC(=O)c8c(Cl)cccc8Cl)C7)cc6)CC5)CC4)cc3c2=O)C(=O)N1 (stereo partly drawn) [Compound 407, 2,6-dichloro-N-((1s,3s)-3-(6-((4-(4-(2-(1-(3-(2,6-dioxopiperidin-3-yl)-4-oxo-3,4-dihydrobenzo[d][1,2,3]triazin-6-yl)piperidin-4-yl)ethyl)piperazin-1-yl)phenyl)amino)-9H-purin-9-yl)cyclobutyl)benzamide]
- Enzyme degradation CDK9 (% remaining) @ 0.1 μM [1]: 0/0/0%
- Enzyme degradation CDK9 (% remaining) @ 1 μM [1]: 0/0/0%
- Enzyme degradation CDK9 (% remaining) @ 10 μM [1]: 0/0/0%
- Enzyme degradation CDK2 (% remaining) @ 0.1 μM [2]: 60/60/60%
- Enzyme degradation CDK2 (% remaining) @ 1 μM [2]: 60/60/60%
- Enzyme degradation CDK2 (% remaining) @ 10 μM [2]: 60/60/60%

Structure (SMILES): Cc1cccc(C(=O)NC2CC(n3cnc4c(NCCC5CCN(CC6CCN(CC7CN(c8ccc9c(c8)C(=O)N([C@H]8CCC(=O)NC8=O)C9=O)C7)CC6)CC5)ncnc43)C2)n1 (stereo partly drawn) [Compound 402, N-((1s,3s)-3-(6-((2-(1-((1-((1-(2-(2,6-dioxopiperidin-3-yl)-1,3-dioxoisoindolin-5-yl)azetidin-3-yl)methyl)piperidin-4-yl)methyl)piperidin-4-yl)ethyl)amino)-9H-purin-9-yl)cyclobutyl)-6-methylpicolinamide]
- Enzyme degradation CDK9 (% remaining) @ 0.1 μM [1]: 0/0/0%
- Enzyme degradation CDK9 (% remaining) @ 1 μM [1]: 0/0/0%
- Enzyme degradation CDK9 (% remaining) @ 10 μM [1]: 0/0/0%
- Enzyme degradation CDK2 (% remaining) @ 0.1 μM [2]: 70%
- Enzyme degradation CDK2 (% remaining) @ 1 μM [2]: 50%
- Enzyme degradation CDK2 (% remaining) @ 10 μM [2]: 50%

Structure (SMILES): CC(=O)NC1CC(n2cnc3c(NCC4CCN(CC5CCN(C(=O)COc6cccc7c6C(=O)N([C@H]6CCC(=O)NC6=O)C7=O)CC5)CC4)ncnc32)C1 (stereo partly drawn) [Compound 155, N-((1s,3s)-3-(6-(((1-((1-(2-((2-(2,6-dioxopiperidin-3-yl)-1,3-dioxoisoindolin-4-yl)oxy)acetyl)piperidin-4-yl)methyl)piperidin-4-yl)methyl)amino)-9H-purin-9-yl)cyclobutyl)acetamide]
- Enzyme degradation CDK9 (% remaining) @ 0.1 μM [1]: 90%
- Enzyme degradation CDK9 (% remaining) @ 1 μM [1]: 40%
- Enzyme degradation CDK9 (% remaining) @ 10 μM [1]: 0%
- Enzyme degradation CDK2 (% remaining) @ 0.1 μM [2]: 100%
- Enzyme degradation CDK2 (% remaining) @ 1 μM [2]: 80%
- Enzyme degradation CDK2 (% remaining) @ 10 μM [2]: 10%

Structure (SMILES): Cc1cccc(C(=O)NC2CC(n3cnc4c(Nc5ccc(N6CCN(CC7CCN(C(=O)CNc8cccc9c8C(=O)N([C@H]8CCC(=O)NC8=O)C9=O)CC7)CC6)cc5)ncnc43)C2)n1 (stereo partly drawn) [Compound 93, N-((1s,3s)-3-(6-((4-(4-((1-((2-(2,6-dioxopiperidin-3-yl)-1,3-dioxoisoindolin-4-yl)glycyl)piperidin-4-yl)methyl)piperazin-1-yl)phenyl)amino)-9H-purin-9-yl)cyclobutyl)-6-methylpicolinamide]
- Enzyme degradation CDK9 (% remaining) @ 0.1 μM [1]: 0/0/0%
- Enzyme degradation CDK9 (% remaining) @ 1 μM [1]: 0/0/0%
- Enzyme degradation CDK9 (% remaining) @ 10 μM [1]: 0/0/0%
- Enzyme degradation CDK2 (% remaining) @ 0.1 μM [2]: 0%
- Enzyme degradation CDK2 (% remaining) @ 1 μM [2]: 10%
- Enzyme degradation CDK2 (% remaining) @ 10 μM [2]: 10%

Structure (SMILES): O=C1CCC(N2C(=O)c3cccc(OCC(=O)N4CCN(CCCN5CCN(c6ccc(Nc7ncnc8c7ncn8[C@H]7C[C@@H](NC(=O)Cc8ccccc8)C7)cc6)CC5)CC4)c3C2=O)C(=O)N1 (stereo partly drawn) [Compound 232, N-((1s,3s)-3-(6-((4-(4-(3-(4-(2-((2-(2,6-dioxopiperidin-3-yl)-1,3-dioxoisoindolin-4-yl)oxy)acetyl)piperazin-1-yl)propyl)piperazin-1-yl)phenyl)amino)-9H-purin-9-yl)cyclobutyl)-2-phenylacetamide]
- Enzyme degradation CDK9 (% remaining) @ 0.1 μM [1]: 90%
- Enzyme degradation CDK9 (% remaining) @ 1 μM [1]: 10%
- Enzyme degradation CDK9 (% remaining) @ 10 μM [1]: 0%
- Enzyme degradation CDK2 (% remaining) @ 0.1 μM [2]: 60%
- Enzyme degradation CDK2 (% remaining) @ 1 μM [2]: 20%
- Enzyme degradation CDK2 (% remaining) @ 10 μM [2]: 20%

Structure (SMILES): O=C1CC[C@H](N2C(=O)c3ccc(N4CCC(C(=O)N5CCC6(CC5)CC(N5CCN(c7ccc(Nc8ncnc9c8ncn9[C@H]8C[C@@H](NC(=O)c9c(Cl)cccc9Cl)C8)cc7)CC5)C6)CC4)cc3C2=O)C(=O)N1 [Compound 376, 2,6-dichloro-N-((1s,3s)-3-(6-((4-(4-(7-(1-(2-(2,6-dioxopiperidin-3-yl)-1,3-dioxoisoindolin-5-yl)piperidin-4-carbonyl)-7-azaspiro[3.5]nonan-2-yl)piperazin-1-yl)phenyl)amino)-9H-purin-9-yl)cyclobutyl)benzamide]
- Enzyme degradation CDK9 (% remaining) @ 0.1 μM [1]: 10/10/10%
- Enzyme degradation CDK9 (% remaining) @ 1 μM [1]: 10/10/10%
- Enzyme degradation CDK9 (% remaining) @ 10 μM [1]: 10/10/10%
- Enzyme degradation CDK2 (% remaining) @ 0.1 μM [2]: 30/30/30%
- Enzyme degradation CDK2 (% remaining) @ 1 μM [2]: 30/30/30%
- Enzyme degradation CDK2 (% remaining) @ 10 μM [2]: 30/30/30%

Structure (SMILES): O=C1CC[C@H](N2C(=O)c3ccc(NCC(=O)N4CCC5(CC4)CC(N4CCN(c6ccc(Nc7ncnc8c7ncn8[C@H]7C[C@@H](NC(=O)Cc8ccccc8)C7)cc6)CC4)C5)cc3C2=O)C(=O)N1 [Compound 207, N-((1s,3s)-3-(6-((4-(4-(7-((2-(2,6-dioxopiperidin-3-yl)-1,3-dioxoisoindolin-5-yl)glycyl)-7-azaspiro[3.5]nonan-2-yl)piperazin-1-yl)phenyl)amino)-9H-purin-9-yl)cyclobutyl)-2-phenylacetamide]
- Enzyme degradation CDK9 (% remaining) @ 0.1 μM [1]: 0/0/0%
- Enzyme degradation CDK9 (% remaining) @ 1 μM [1]: 0/0/0%
- Enzyme degradation CDK9 (% remaining) @ 10 μM [1]: 0/0/0%
- Enzyme degradation CDK2 (% remaining) @ 0.1 μM [2]: 50%
- Enzyme degradation CDK2 (% remaining) @ 1 μM [2]: 70%
- Enzyme degradation CDK2 (% remaining) @ 10 μM [2]: 50%

Structure (SMILES): O=C1CC[C@@H](c2ccc(OCC(=O)N3CCC(CCN4CCN(c5ccc(Nc6ncnc7c6ncn7C6CC(NC(=O)Cc7ccccc7)C6)cc5)CC4)CC3)cc2)C(=O)N1 (stereo partly drawn) [Compound 433, N-((1s,3s)-3-(6-((4-(4-(2-(1-(2-(4-(2,6-dioxopiperidin-3-yl)phenoxy)acetyl)piperidin-4-yl)ethyl)piperazin-1-yl)phenyl)amino)-9H-purin-9-yl)cyclobutyl)-2-phenylacetamide]
- Enzyme degradation CDK9 (% remaining) @ 0.1 μM [1]: 20%
- Enzyme degradation CDK9 (% remaining) @ 1 μM [1]: 10%
- Enzyme degradation CDK9 (% remaining) @ 10 μM [1]: 10%
- Enzyme degradation CDK2 (% remaining) @ 0.1 μM [2]: 80%
- Enzyme degradation CDK2 (% remaining) @ 1 μM [2]: 90%
- Enzyme degradation CDK2 (% remaining) @ 10 μM [2]: 90%

Structure (SMILES): COc1ccc(C(=O)N2CC(N3CCC4(CC3)CC(N3CCN(c5ccc(Nc6ncnc7c6ncn7[C@H]6C[C@@H](NC(=O)Cc7ccccc7)C6)cc5)CC3)C4)C2)cc1N1CCC(=O)NC1=O [Compound 272, N-((1s,3s)-3-(6-((4-(4-(7-(1-(3-(2,4-dioxotetrahydropyrimidin-1(2H)-yl)-4-methoxybenzoyl)azetidin-3-yl)-7-azaspiro[3.5]nonan-2-yl)piperazin-1-yl)phenyl)amino)-9H-purin-9-yl)cyclobutyl)-2-phenylacetamide]
- Enzyme degradation CDK9 (% remaining) @ 0.1 μM [1]: 30%
- Enzyme degradation CDK9 (% remaining) @ 1 μM [1]: 20%
- Enzyme degradation CDK9 (% remaining) @ 10 μM [1]: 20%
- Enzyme degradation CDK2 (% remaining) @ 0.1 μM [2]: 40/40/40%
- Enzyme degradation CDK2 (% remaining) @ 1 μM [2]: 40/40/40%
- Enzyme degradation CDK2 (% remaining) @ 10 μM [2]: 40/40/40%

Structure (SMILES): Cc1cccc(C(=O)N[C@H]2C[C@@H](n3cnc4c(NC5CCN(CCCN6CCN(C(=O)CNc7cccc8c7C(=O)N([C@H]7CCC(=O)NC7=O)C8=O)CC6)CC5)ncnc43)C2)n1 [Compound 38, N-((1s,3s)-3-(6-((1-(3-(4-((2-(2,6-dioxopiperidin-3-yl)-1,3-dioxoisoindolin-4-yl)glycyl)piperazin-1-yl)propyl)piperidin-4-yl)amino)-9H-purin-9-yl)cyclobutyl)-6-methylpicolinamide]
- Enzyme degradation CDK9 (% remaining) @ 0.1 μM [1]: 0/0/0%
- Enzyme degradation CDK9 (% remaining) @ 1 μM [1]: 0/0/0%
- Enzyme degradation CDK9 (% remaining) @ 10 μM [1]: 0/0/0%
- Enzyme degradation CDK2 (% remaining) @ 0.1 μM [2]: 40%
- Enzyme degradation CDK2 (% remaining) @ 1 μM [2]: 30%
- Enzyme degradation CDK2 (% remaining) @ 10 μM [2]: 20%

Structure (SMILES): O=C1CCC(N2C(=O)C=C(N3CCC(C(=O)NC[C@H]4CC[C@H](CN5CCN(c6ccc(Nc7ncnc8c7ncn8[C@H]7C[C@@H](NC(=O)Cc8ccccc8)C7)cc6)CC5)CC4)CC3)C2=O)C(=O)N1 (stereo partly drawn) [Compound 201, 1-(1-(2,6-dioxopiperidin-3-yl)-2,5-dioxo-2,5-dihydro-1H-pyrrol-3-yl)-N-(((1r,4r)-4-((4-(4-((9-((1s,3s)-3-(2-phenylacetamido)cyclobutyl)-9H-purin-6-yl)amino)phenyl)piperazin-1-yl)methyl)cyclohexyl)methyl)piperidin-4-carboxamide]
- Enzyme degradation CDK9 (% remaining) @ 0.1 μM [1]: 10%
- Enzyme degradation CDK9 (% remaining) @ 1 μM [1]: 10%
- Enzyme degradation CDK9 (% remaining) @ 10 μM [1]: 0%
- Enzyme degradation CDK2 (% remaining) @ 0.1 μM [2]: 50%
- Enzyme degradation CDK2 (% remaining) @ 1 μM [2]: 70%
- Enzyme degradation CDK2 (% remaining) @ 10 μM [2]: 50%

Structure (SMILES): CC(=O)N[C@H]1C[C@@H](n2cnc3c(NCc4ccc(N5CCN(CC6CCN(C(=O)CNc7ccc8c(c7)C(=O)N([C@H]7CCC(=O)NC7=O)C8=O)CC6)CC5)cc4)ncnc32)C1 [Compound 161, N-((1s,3s)-3-(6-((4-(4-((1-((2-(2,6-dioxopiperidin-3-yl)-1,3-dioxoisoindolin-5-yl)glycyl)piperidin-4-yl)methyl)piperazin-1-yl)benzyl)amino)-9H-purin-9-yl)cyclobutyl)acetamide]
- Enzyme degradation CDK9 (% remaining) @ 0.1 μM [1]: 30%
- Enzyme degradation CDK9 (% remaining) @ 1 μM [1]: 10%
- Enzyme degradation CDK9 (% remaining) @ 10 μM [1]: 10%
- Enzyme degradation CDK2 (% remaining) @ 0.1 μM [2]: 90%
- Enzyme degradation CDK2 (% remaining) @ 1 μM [2]: 80%
- Enzyme degradation CDK2 (% remaining) @ 10 μM [2]: 60%
